Measurements: EP4635500A1, “THERAPEUTIC AGENT FOR BACTERIAL INFECTION” (Sumitomo Pharma Co., Ltd., priority 2022, dated 2024)

System: Citrobacter freundii
Assay: MIC and MBC, broth microdilution (Example 4, Table 3)
Assay type: cell-based
Settings: Citrobacter freundii CDC-157 (NDM-1)

CC(C)(O/N=C(\C(=O)N[C@@H]1C(=O)N2C(C(=O)[O-])=C(C[n+]3ccccc3)CS[C@H]12)c1csc(N)n1)C(=O)O [CAZ, ceftazidime]
MBC: > 128 µg/mL
MIC: > 128 µg/mL
